In US8273775B2, “Non-steroidal brassinosteroid mimetic” (priority 2006, dated 2012):

Test system: gene expression in Col-0 seedling shoots
Assay: Microarray analysis (ATH1 Affymetrix) after BL or abrasin treatment
Type: in vivo, Arabidopsis
Procedure: FIG. 14: Clustering of gene expression profiles by QT-clust analysis. Clusters illustrating the major patterns of the data sets. Points: BIK-30: 30 μM abrasin 30 min; BL-30: 1 μM brassinolide 30 min; DMSO-30: control DMSO 30 min; BIK-120: 30 μM abrasin 120 min; BL-120: 1 μM brassinolide 120 min; DMSO-120: control DMSO 120 min.
Col-0 seeds were germinated vertically on ½ MS medium for 7 days under 16 h light/8 h dark cycles. The seedlings were overlaid with liquid ½ MS medium containing 1 μM brassinolide (BL, Fuji Chemical Industries, Ltd., Toyama, Japan), 30 μM abrasin (BIK, ChemBridge Corporation) and DMSO and treated for 30 and 120 min. The shoot parts were collected for RNA isolation. All sampling points were performed in three independent experiments. RNA was extracted using RNeasy kit (Qiagene). […] total RNA per array was used to hybridise the ATH1 Affymetrix Arabidopsis arrays according to standard procedure. The overrepresentation analyses were performed using BiNGO software (Maere et al., 2005).
We performed a microarray analysis using the Arabidopsis whole genome chip (Affymetix) to determine whether abrasin activated the expression of BR-inducible genes at transcriptional level. Wild-type Col-0 seedlings were exposed to 1 μM BL, 30 μM ABRASIN and DMSO (mock-treatment) for two time points (30 min and 120 min) and the shoot parts were collected for RNA isolation. The analysis of the variance of the normalized gene expression data took in account the variability parameters affecting the expression level: type of hormone treatment, duration of treatment and the interaction between these two.

## CC(C)[C@H](C)[C@@H](O)[C@H](O)[C@@H](C)[C@H]1CC[C@H]2[C@@H]3COC(=O)[C@H]4C[C@H](O)[C@H](O)C[C@]4(C)[C@H]3CC[C@]12C [BL, brassinolide, reference compound]
30 min, 265877_at, Cluster 6
  Fold-change of gene AT2G42380 (bZIP transcription factor family protein): 0.81
30 min, 266124_at, Cluster 8
  Fold-change of gene AT2G45080 (cyclin family protein): 0.84
120 min
  Fold-change AT1G04330 expressed protein: 1.30
  Fold-change AT1G05470 endonuclease/exonuclease/phosphatase family protein: 1.05
  Fold-change AT1G06520 Encodes a membrane associated mitochondrial localized protein: 3.11
  Fold-change AT1G06570 4-hydroxyphenylpyruvate dioxygenase (HPD): 0.27
  Fold-change AT1G10550 xyloglucan:xyloglucosyl transferase: 2.19
  Fold-change AT1G12710 F-box family protein: 2.11
  Fold-change AT1G12750 rhomboid family protein: 0.78
  Fold-change AT1G14130 2-oxoglutarate-dependent dioxygenase: 1.31
  Fold-change AT1G14700 purple acid phosphatase: 0.59
  Fold-change AT1G16640 transcriptional factor B3 family protein: 0.95
  Fold-change AT1G17230 leucine-rich repeat family protein: 0.38
  Fold-change AT1G18020; AT1G17990 [AT1G18020, 12-oxophytodienoate reductase,: 0.50
  Fold-change AT1G19320 pathogenesis-related thaumatin family protein: 0.38
  Fold-change AT1G20350 mitochondrial import inner membrane translocase subunit: 1.08
  Fold-change AT1G21050 expressed protein: 0.22
  Fold-change AT1G21760 F-box family protein: 0.60
  Fold-change AT1G22360 UDP-glucoronosyl/UDP-glucosyl transferase family protein: 0.29
  Fold-change AT1G23080 auxin efflux carrier protein (PIN7): 0.48
  Fold-change AT1G26800 zinc finger (C3HC4-type RING finger) family protein,: 6.09
  Fold-change AT1G27730 zinc finger (C2H2 type) family protein: 0.71
  Fold-change AT1G28130 encodes an IAA-amido synthase: 0.28
  Fold-change AT1G28190 expressed protein: 0.58
  Fold-change AT1G28480 glutaredoxin family protein: 1.38
  Fold-change AT1G31040 zinc-binding protein-related: 1.12
  Fold-change AT1G31310 hydroxyproline-rich glycoprotein family protein: 0.74
  Fold-change AT1G31770 ABC transporter family protein: 0.64
  Fold-change AT1G32190 expressed protein: 0.11
  Fold-change AT1G32690 expressed protein: 0.48
  Fold-change AT1G36940 expressed protein: 0.38
  Fold-change AT1G49780 U-box domain-containing protein: 0.28
  Fold-change AT1G53870; AT1G53890 [AT1G53870, expressed protein: 0.77
  Fold-change AT1G54050 17.4 kDa class III heat shock protein (HSP17.4-CIII): 3.58
  Fold-change AT1G54200 expressed protein: 2.06
  Fold-change AT1G55920 serine O-acetyltransferase: 1.01
  Fold-change AT1G57560 myb family transcription factor (MYB50): 2.45
  Fold-change AT1G59590 expressed protein: 1.03
  Fold-change AT1G59660 nucleoporin family proteinmily: 3.15
  Fold-change AT1G62300 WRKY family transcription factor: 0.21
  Fold-change AT1G63050 membrane bound O-acyl transferase (MBOAT) family protein: 0.40
  Fold-change AT1G66160 U-box domain-containing protein,: 1.22
  Fold-change AT1G66890 expressed protein: 0.34
  Fold-change AT1G68330 expressed protein: 1.74
  Fold-change AT1G68810 basic helix-loop-helix (bHLH) family protein: 0.83
  Fold-change AT1G69160 expressed protein: 0.59
  Fold-change AT1G70990 proline-rich family protein: 2.22
  Fold-change AT1G71030 Encodes a putative myb family transcription factor: 0.13
  Fold-change AT1G72060 expressed protein: 0.92
  Fold-change AT1G72180 leucine-rich repeat transmembrane protein kinase: 0.22
  Fold-change AT1G72800 nuM1-related, contains: 2.85
  Fold-change AT1G75270 dehydroascorbate reductase: 1.66
  Fold-change AT1G75500 nodulin MtN21 family protein: 0.56
  Fold-change AT1G76240 expressed protein,: 0.16
  Fold-change AT1G76410 zinc finger (C3HC4-type RING finger): 0.43
  Fold-change AT1G79110 expressed protein: 0.77
  Fold-change AT1G79630 protein phosphatase 2C family protein: 0.37
  Fold-change AT1G80440 kelch repeat-containing F-box family protein: 2.93
  Fold-change AT2G01300 expressed protein: 4.83
  Fold-change AT2G01990 expressed protein,: 1.06
  Fold-change AT2G04240 zinc finger (C3HC4-type RING finger) family protein: 2.81
  Fold-change AT2G05540 glycine-rich protein: 0.46
  Fold-change AT2G12290; AT4G19700 [AT2G12290, expressed protein]; [AT4G19700, expressed protein]: 0.55
  Fold-change AT2G18010 auxin-responsive family protein (SAUR10): 9.13
  Fold-change AT2G19800 expressed protein: 1.78
  Fold-change AT2G22860 phytosulfokines 2 (PSK2): 0.44
  Fold-change AT2G23180 cytochrome P450, putative: 0.42
  Fold-change AT2G23320 WRKY family transcription factor: 0.50
  Fold-change AT2G26530 expressed protein: 0.86
  Fold-change AT2G26710 cytochrome p450 family (BAS1): 5.42
  Fold-change AT2G28510 Dof-type zinc finger domain-containing protein: 0.51
  Fold-change AT2G29340 short-chain dehydrogenase/reductase (SDR) family protein: 1.29
  Fold-change AT2G29990 pyridine nucleotide-disulphide oxidoreductase family protein: 0.48
  Fold-change AT2G30070 potassium transporter (KUP1): 0.38
  Fold-change AT2G31230 encodes a member of the ERF (ethylene response factor): 2.74
  Fold-change AT2G34650 protein kinase PINOID (PID): 3.26
  Fold-change AT2G36220 expressed protein: 2.62
  Fold-change AT2G37590 Dof-type zinc finger domain-containing protein: 1.19
  Fold-change AT2G38470 WRKY family transcription factor: 0.57
  Fold-change AT2G39710 aspartyl protease family protein: 1.00
  Fold-change AT2G40340; AT2G40350 [AT2G40340, encodes a member of the DREB subfamily A-2 of ERF/AP2: 1.68
  Fold-change AT2G41250 haloacid dehalogenase-like hydrolase family protein: 0.44
  Fold-change AT2G41640 expressed protein: 1.43
  Fold-change AT2G42280 basic helix-loop-helix (bHLH) family protein: 0.41
  Fold-change AT2G43060 expressed protein, similar to cDNA bHLH transcription factor: 0.36
  Fold-change AT2G43280 far-red impaired responsive family protein: 0.51
  Fold-change AT2G43290 calmodulin-like protein (MSS3): 2.99
  Fold-change AT2G44130 kelch repeat-containing F-box family protein: 6.30
  Fold-change AT2G44500 expressed protein: 2.06
  Fold-change AT2G45210 auxin-responsive protein-related: 0.21
  Fold-change AT2G45680 TCP family transcription factor: 0.82
  Fold-change AT2G46225 Encodes a subunit of the WAVE complex: 0.47
  Fold-change AT2G47440 DNAJ heat shock N-terminal domain-containing protein: 2.23
  Fold-change AT3G04210 disease resistance protein (TIR-NBS class), putative,: 1.00
  Fold-change AT3G09920 phosphatidylinositol-4-phosphate 5-kinase family protein: 0.42
  Fold-change AT3G12920 expressed protein: 0.41
  Fold-change AT3G13040 myb family transcription factor: 0.54
  Fold-change AT3G13510 expressed protein: 0.83
  Fold-change AT3G13980 expressed protein: 0.45
  Fold-change AT3G14370 protein kinase family protein: 3.50
  Fold-change AT3G14560 expressed protein: 0.50
  Fold-change AT3G16570 rapid alkalinization factor (RALF) family protein: 0.87
  Fold-change AT3G17860 expressed protein: 0.74
  Fold-change AT3G18830 polyol/cyclitol/monosaccharide-H+-symporte: 1.14
  Fold-change AT3G19380 U-box domain-containing protein: 0.27
  Fold-change AT3G23030 auxin-responsive protein/indoleacetic acid-induced protein 2 (IAA2): 0.39
  Fold-change AT3G23550 MATE efflux family protein: 0.31
  Fold-change AT3G25710 basic helix-loop-helix (bHLH) family protein: 0.53
  Fold-change AT3G25900 homocysteine S-methyltransferase 1 (HMT-1): 2.22
  Fold-change AT3G26910 hydroxyproline-rich glycoprotein family protein: 0.60
  Fold-change AT3G30180 cytochrome p450 enzyme: 0.07
  Fold-change AT3G46880 expressed protein,: 0.60
  Fold-change AT3G47800 aldose 1-epimerase family protein: 0.26
  Fold-change AT3G48970 copper-binding family protein: 0.59
  Fold-change AT3G49810 U-box domain-containing protein: 0.56
  Fold-change AT3G50650 scarecrow-like transcription factor 7 (SCL7): 1.82
  Fold-change AT3G50660 steroid 22-alpha-hydroxylase (CYP90B1) (DWF4): 0.02
  Fold-change AT3G50750 brassinosteroid signalling positive regulator-related (BEH1): 0.35
  Fold-change AT3G52490 heat shock protein-related: 1.08
  Fold-change AT3G53810 lectin protein kinase: 1.19
  Fold-change AT3G54950 patatin-related,: 0.39
  Fold-change AT3G55120 chalcone-flavanone isomerase: 0.68
  Fold-change AT3G55150 exocyst subunit EXO70 family protein: 0.13
  Fold-change AT3G55840 expressed protein: 7.41
  Fold-change AT3G61460 zinc finger (C3HC4-type RING finger) family protein (BRH1): 0.43
  Fold-change AT3G63300 expressed protein: 1.13
  Fold-change AT4G01680 myb family transcription factor (MYB55): 0.14
  Fold-change AT4G02410 lectin protein kinase family protein: 0.59
  Fold-change AT4G08040 1-aminocyclopropane-1-carboxylate synthase, putative: 0.02
  Fold-change AT4G09460 myb family transcription factor: 2.76
  Fold-change AT4G12390 invertase/pectin methylesterase inhibitor family protein: 0.66
  Fold-change AT4G12410 auxin-responsive family protein: 0.44
  Fold-change AT4G14130 xyloglucan:xyloglucosyl transferase: 0.08
  Fold-change AT4G15975 zinc finger (C3HC4-type RING finger) family protein: 1.05
  Fold-change AT4G16146 expressed protein: 0.55
  Fold-change AT4G16563 aspartyl protease family protein: 2.89
  Fold-change AT4G16670 expressed protein: 0.35
